Measured values as given in US9096594B2, “Kinase inhibitors and methods of use thereof” (priority 2012, dated 2015).
Converted amounts (≈) assume the structure as drawn. Where two headings read alike, the source gives them in different places.

Assays:
LIMK1 = LIMK1 (Homo sapiens (Human), UniProt P53667); experiment: Carna Biosciences kinase assay, LIMK1; format: biochemical
Procedure: (§1) Briefly, a selection of compounds was screened against a panel of kinases at a single concentration of 10 μM. […] This was completed utilizing one of two assays depending on the kinase being examined.
(§2) Test compounds were dissolved in and diluted with dimethylsulfoxide (DMSO) to generate a 100× sample solution. These were then diluted to 4× sample solutions in assay buffer to make the final test compound solutions. Reference compounds for assay control were prepared similarly.
(§3) A solution of IMAP binding reagent (IMAP Screening Express kit; Molecular Devices) (60 μL) was added to each well and incubated for 30 minutes.
(§4) A solution of termination buffer (QuickScout Screening assist MSA; Carna Biosciences) (60 μL) was added to each well. The entire reaction mixture was then applied to a LabChip3000 system (Caliper Life Science) and the product and substrate peptide peaks were separated and quantified.

panel of 311 kinases = experiment: Kinome-wide selectivity profile (Carna Biosciences, 311 kinases); format: biochemical
Procedure: as §1, §2, §3, §4

[1] = tested on: TCF/LEF reporter in HEK293-pBARL cells; experiment: cells
Procedure: (§5) HEK293-pBARL cells were derived from HEK293 cells and they stably expressed a firefly-luciferase reporter gene driven by a promoter containing 12 copies of TCF/LEF binding sequences. These cells were maintained in DMEM and supplemented with 10% FBS and 1% penicillin-streptomycin (Invitrogen). Reporter gene assays were conducted in anti-biotic free media. […] These cells also contained a renilla-luciferase reporter gene driven by the ubiquitous EF1α promoter as a control. HEK293-pBarl reporter cell lines were seeded into 384-well culture plates (Corning) at 6000 cells/well. 24 hours after plating, cells were treated overnight with relevant compounds and assayed using DualGlo assay kit (Promega). Luminescent intensities were read by EnVision (PerkinElmer, Waltham, Mass.). Firefly luciferase intensity is normalized by renilla luciferase intensity.
(§6) Cells were cultured in 384 well plates to appropriate density (40 μl total plating volume). 24 hours after plating, cells were treated with 100 nl compounds. 24 hours after incubation with compounds (48 hours after plating), assay reagents were prepared by mixing Luciferase Assay solution with Luciferase substrate and Stop & Glo solution to Stop & Glo substrate (extra reagents can be aliquoted and frozen for future use and are stable for at least one freeze/thaw cycle). […] The plate was spun down and 10 minutes were allowed for signal stabilization. Luciferase signal on the Perkin Elmer EnVision using the following parameters: Distance between plate & detector (mm)=0.2; Measurement time(s)=0.1; Glow (CT2) correction factor=0. Once the initial data is secure, a volume of Stop & Glo was added equal to each well equal to the volume of Luciferase reagent added above (If 10 μl Luciferase Reagent was added, 10 μl Stop & Glo was also added). The plate was spun down and 10 minutes were allowed for signal stabilization. The plate was read on the EnVision using the same parameters detailed above.

CDK5 = CDK5 (Homo sapiens (Human), UniProt Q00535); experiment: Carna Biosciences kinase assay, CDK5; format: biochemical
Procedure: as §1, §2, §3, §4
(§7) The assay utilized was identical to that of the single point inhibitory activity determination (MSA) but run in dose response. […] A solution of termination buffer (QuickScout Screening assist MSA; Carna Biosciences) (60 μL) was added to each well. The entire reaction mixture was then applied to a LabChip3000 system (Caliper Life Science) and the product and substrate peptide peaks were separated and quantified.

Erk5 = Erk5 (Homo sapiens (Human), UniProt Q13164); experiment: Carna Biosciences kinase assay, Erk5; format: biochemical
Procedure: as §1, §2, §3, §4

[2] = M (mouse)
PLK1 = PLK1 (Homo sapiens (Human), UniProt P53350); experiment: Carna Biosciences kinase assay, PLK1; format: biochemical
Procedure: as §1, §2, §3, §4

CDK9 = CDK9 (Homo sapiens (Human), UniProt P50750); experiment: Carna Biosciences kinase assay, CDK9; format: biochemical
Procedure: as §1, §2, §3, §4

[3] = tested on: amphetamine-induced hyperactivity in mice; experiment: Amphetamine-induced hyperactivity (AIH); format: in vivo, mouse; conditions: intracerebroventricular injection, vs vehicle
GSK3β [4] = molecular target: T1, GSK3β (Homo sapiens (Human), UniProt P49841)
Procedure: (§8) Human GSK3β as a GST fusion expressed in baculoviral system was purchased from BPS Bioscience (San Diego, Calif.). […] Reactions were incubated at room temperature for 60 minutes. 2.5 μL/well of ADP-Glo (Promega, V9103) was added with BioRAPTR, and incubated at room temperature for 40 minutes followed by addition of 5 μL/well of ADP-Glo detection reagent (Promega, V9103) with Combi nL (Thermo, Waltham, Mass.) and incubation at room temperature for 30 minutes. The plates were read on a ViewLux (PerkinElmer, Waltham, Mass.) for luminescence. Data were scaled using the positive and neutral controls and fitted for IC50 as described below.
(§9) 100 mL/well compounds were pinned. […] Incubated at room temperature for 60 minutes. Added 20 μL/well of ADP-glo (Promega, V9103) with Combi, and incubated at room temperature for 40 minutes. Added 40 μL/well of ADP-glo (Promega, V9103) with Combi, incubated at room temperature for 30 minutes. Read on Envision for luminescence.

GSK3α [5] = molecular target: T2, GSK3α (Homo sapiens (Human), UniProt P49840)
Procedure: GSK3β Microfluidic Mobility-Shift Assay
(§10) Reactions were terminated by the addition of 10 mM EDTA. Substrate and product were separated electrophoretically and fluorescence intensity of the substrate and product was determined by Labchip EZ Reader II (Caliper Life Sciences, MA). The kinase activity was measured as percent conversion. The reactions were performed in duplicate for each sample. […] The results were analyzed by Genedata Assay Analyzer. The percent inhibition was plotted against the compound concentration and the IC50 value was determined from the logistic dose-response curve fitting.

GSK3β [6] = molecular target: T1, GSK3β; remark: listed apart in the source
GSK3α [7] = molecular target: T2, GSK3α; conditions: read-out: IC50 (μM), GSK3α
GSK3β [8] = molecular target: T1, GSK3β; conditions: read-out: IC50 (μM), GSK3β
in vitro = conditions: mouse, mouse plasma, pH 7.4
Procedure: Plasma protein binding was determined by equilibrium dialysis using the Rapid Equilibrium Dialysis (RED) device (Pierce Biotechnology, Rockford, Ill.) for both human and mouse plasma. […] Compounds were incubated at 37° C. for 5 hours with a 250 rpm orbital shake.

GSK3β [9] = molecular target: T1, GSK3β; remark: listed apart in the source
Procedure: GSK3β Microfluidic Mobility-Shift Assay
as §10

SH-SY5Y cells = experiment: Cellular toxicity in SH-SY5Y cells; conditions: highest testing concentration of 30 μM
Procedure: Biochemical characterization of these synthesized compounds were assayed against GSK3β and CDK5/p25, with CDK5/p25 serving as a counter target of GSK3β selectivity. […] The effects of these compounds on survival of SH-SY5Y pathophysiology cells were also monitored.

CDK2/CycE1 = CDK2/CycE1 (Homo sapiens (Human), UniProt P24941); experiment: Carna Biosciences kinase assay, CDK2/CycE1; format: biochemical; conditions: read-out: % Inhibition at 10 μM, CDK2/CycE1
Procedure: as §1, §2, §3, §4, §7

PBS stability = format: physicochemical; conditions: 48 hours of incubation, acetonitrile recovery
Procedure: Stability was determined in the presence of PBS pH 7.4 with 0.1% DMSO. Each compound was prepared in duplicate on six separate plates and allowed to equilibrate at room temperature with a 250 rpm orbital shake for 48 hours. One plate was removed at each time point (0, 2, 4, 8, 24, and 48 hours). […] Additionally, to the remaining material at each time point, acetonitrile was added to force dissolution of compound (to test for recovery of compound). An aliquot of this was also analyzed by UPLC-MS.

GSK3α [10] = molecular target: T2, GSK3α; experiment: biochemical
[11] = Plasma protein binding (equilibrium dialysis), human plasma; format: in vitro ADME
Procedure: Plasma protein binding was determined by equilibrium dialysis using the Rapid Equilibrium Dialysis (RED) device (Pierce Biotechnology, Rockford, Ill.) for both human and mouse plasma. Each compound was prepared in duplicate at 5 μM in plasma (0.95% acetonitrile, 0.05% DMSO) and added to one side of the membrane (200 μl) with PBS pH 7.4 added to the other side (350 μl). Compounds were incubated at 37° C. for 5 hours with a 250 rpm orbital shake.

physchem = conditions: phosphate buffered saline (PBS) with 1% DMSO, 23 °C, pH 7.4, aqueous buffer, kinetic from dmso stock
GSH stability = format: physicochemical; conditions: 48 hours
Procedure: Stability was determined in the presence of PBS pH […] and 50 μM glutathione with 0.1% DMSO. Each compound was prepared in duplicate on six separate plates and allowed to equilibrate at room temperature with a 250 rpm orbital shake for 48 hours. One plate was removed at each time point (0, 2, 4, 8, 24, and 48 hours). […] Additionally, to the remaining material at each time point, acetonitrile was added to force dissolution of compound (to test for recovery of compound). An aliquot of this was also analyzed by UPLC-MS.

CDK2/CycA2 = CDK2/CycA2 (Homo sapiens (Human), UniProt P24941); experiment: Carna Biosciences kinase assay, CDK2/CycA2; format: biochemical; conditions: read-out: % Inhibition at 10 μM, CDK2/CycA2
Procedure: as §1, §2, §3, §4, §7

GSK3β [12] = molecular target: T1, GSK3β; experiment: biochemical
[13] = tested on: TCF/LEF reporter in HEK293-pBARL cells; conditions: read-out: TCF/LEF EC50
Procedure: as §5, §6

[14] = mouse plasma, 5 hours
Procedure: Plasma stability was determined at 37° C. at 5 hours in both human and mouse plasma. […] Compounds were incubated at 37° C. for 5 hours with a 250 rpm orbital shake with time points taken at 0 and 5 hours.

[15] = tested on: β-catenin nuclear translocation in U2-OS cells; experiment: β-Catenin nuclear localization assay; format: cell-based
Procedure: β-Catenin Nuclear Localization Assay
U2-OS cells stably expressing two complimentary β-galactosidase fragments (one part on β-Catenin and the other constitutively expressed in the cell nucleus) were maintained in DMEM F12 supplemented with 10% FBS. When β-catenin translocates to the nucleus, the complimentary fragments form a complete β-galactosidase, the amount of which is then quantified by β-galactosidase activity (DiscoveRx). Cells were seeded in a 384-well CulturPlate (Perkin Elmer, Boston, Mass.) with 10,000 per well in 20 μL DMEM F12 containing 10% FCS, 100 U/ml penicillin and 100 μg/mL streptomycin. After overnight incubation at 37° C., cells were stimulated with 100 mL test compound/well and then returned to the incubator for 6 h. Cells were disrupted using 12 μL substrate-containing lysis buffer from the PathHunter Detection Kit in the formulation specified by the supplier (DiscoveRx). Plates were incubated in the dark for 1 h at room temperature before measurement of P3-galactosidase activity (luminescence) on an EnVision plate reader (PerkinElmer, Waltham, Mass.).

[16] = tested on: phospho-Tau (Ser199) in SH-SY5Y cells; experiment: Tau phosphorylation (Ser199) ELISA in SH-SY5Y cells; format: cell-based, human; conditions: Homo sapiens, SH-SY5Y, read-out: p-Tau (μM)
Procedure: Tau Phosphorylation and Total Tau Assay
SH-SY5Y cells were maintained in DMEM supplemented with 10% heat-inactivated FBS and 1% penicillin-streptomycin (Invitrogen) unless otherwise stated. ELISA kits for phospho-Tau (Ser199) and total Tau detection were purchased from Invitrogen (KHB0041, and KHB7041 respectively). Briefly, SH-SY5Y cells were seeded at 50,000 cells/200 μL/well in 96 well plates and after overnight incubation, treated with various doses of chemical compounds at 0.2 μL/well. The next day cells were washed with PBS twice before being lysed in 100 μL Lysis buffer/well. […]
A standard protocol using an immunoassay kit to quantify total Tau protein and phospho-Tau (Ser199) protein in SH-SY5Y human neuroblastoma cells was employed. […]
Well strips were warmed and inserted into the frame. […] Samples were loaded to each well that would be analyzed for total Tau, 85 μl standard diluent buffer and 15 μl cell lysate were added. To each well that will be analyzed for pTau (Ser199) 50 μl standard diluent buffer+50 μl cell lysate were added. […] Anti-total Tau was added to wells being analyzed for total Tau, anti-pTau (Ser199) was added to wells being analyzed for pTau (Ser199), and plates were tapped gently on the side to mix. […] Absorbance of each well was read at 450 nm (within 2 hours of adding stop solution).

GSK3β [17] = molecular target: T1, GSK3β; experiment: biochemical; remark: listed apart in the source
Procedure: as §8, §9

T2 sequence (P49840 whole entry): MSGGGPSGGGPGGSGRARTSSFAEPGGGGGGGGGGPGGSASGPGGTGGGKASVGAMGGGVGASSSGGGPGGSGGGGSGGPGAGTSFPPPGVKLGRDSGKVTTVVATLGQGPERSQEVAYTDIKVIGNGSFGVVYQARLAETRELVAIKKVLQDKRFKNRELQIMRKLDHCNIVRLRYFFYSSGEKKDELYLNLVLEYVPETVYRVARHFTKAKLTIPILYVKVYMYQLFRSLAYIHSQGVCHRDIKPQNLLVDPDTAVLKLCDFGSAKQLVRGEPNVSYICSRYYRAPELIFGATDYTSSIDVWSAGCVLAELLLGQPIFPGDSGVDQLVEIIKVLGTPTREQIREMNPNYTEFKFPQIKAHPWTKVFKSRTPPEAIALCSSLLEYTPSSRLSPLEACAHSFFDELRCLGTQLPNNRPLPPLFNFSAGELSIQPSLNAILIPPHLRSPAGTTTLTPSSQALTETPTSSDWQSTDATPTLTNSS
T1 sequence (P49841 whole entry): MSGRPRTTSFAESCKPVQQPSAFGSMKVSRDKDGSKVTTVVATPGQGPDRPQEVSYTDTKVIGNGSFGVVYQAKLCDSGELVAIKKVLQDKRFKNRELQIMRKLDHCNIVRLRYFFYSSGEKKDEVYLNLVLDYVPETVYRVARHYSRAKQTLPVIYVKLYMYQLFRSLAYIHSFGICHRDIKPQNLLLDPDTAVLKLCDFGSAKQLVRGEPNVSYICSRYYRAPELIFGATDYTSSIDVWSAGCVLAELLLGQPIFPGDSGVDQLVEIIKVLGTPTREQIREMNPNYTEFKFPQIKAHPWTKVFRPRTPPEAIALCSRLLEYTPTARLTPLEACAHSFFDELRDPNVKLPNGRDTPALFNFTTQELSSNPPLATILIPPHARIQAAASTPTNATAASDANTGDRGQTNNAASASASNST
Chain of LIMK1 (P53667 whole entry): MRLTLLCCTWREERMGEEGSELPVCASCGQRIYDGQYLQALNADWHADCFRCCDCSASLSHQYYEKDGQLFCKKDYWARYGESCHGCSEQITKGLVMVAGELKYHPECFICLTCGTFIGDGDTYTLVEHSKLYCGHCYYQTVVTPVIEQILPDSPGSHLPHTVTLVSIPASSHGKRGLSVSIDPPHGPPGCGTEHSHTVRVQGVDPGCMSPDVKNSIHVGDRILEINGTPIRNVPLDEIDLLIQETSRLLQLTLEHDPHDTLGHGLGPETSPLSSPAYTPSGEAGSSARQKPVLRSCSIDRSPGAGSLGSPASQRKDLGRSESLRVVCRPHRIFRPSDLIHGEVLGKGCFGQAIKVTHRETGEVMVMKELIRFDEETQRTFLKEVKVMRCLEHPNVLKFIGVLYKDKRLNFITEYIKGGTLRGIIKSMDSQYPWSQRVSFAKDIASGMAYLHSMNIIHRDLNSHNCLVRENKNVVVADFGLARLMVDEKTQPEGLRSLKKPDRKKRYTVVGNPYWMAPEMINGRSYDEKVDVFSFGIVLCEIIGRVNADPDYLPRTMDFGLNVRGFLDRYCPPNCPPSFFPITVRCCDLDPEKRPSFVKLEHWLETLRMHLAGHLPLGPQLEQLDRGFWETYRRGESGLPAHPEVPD
Chain of CDK9 (P50750 whole entry): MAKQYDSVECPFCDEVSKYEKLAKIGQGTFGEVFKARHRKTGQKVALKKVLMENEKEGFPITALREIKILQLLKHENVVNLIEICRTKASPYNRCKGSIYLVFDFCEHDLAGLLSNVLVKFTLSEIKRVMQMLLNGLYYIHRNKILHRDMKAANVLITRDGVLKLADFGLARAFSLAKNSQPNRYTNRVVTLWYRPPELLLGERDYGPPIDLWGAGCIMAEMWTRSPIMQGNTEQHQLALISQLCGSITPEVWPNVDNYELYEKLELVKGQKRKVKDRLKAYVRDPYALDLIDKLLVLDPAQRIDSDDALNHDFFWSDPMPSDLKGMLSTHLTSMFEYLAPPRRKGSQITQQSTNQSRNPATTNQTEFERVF
Chain of CDK9 (O60563 whole entry partner): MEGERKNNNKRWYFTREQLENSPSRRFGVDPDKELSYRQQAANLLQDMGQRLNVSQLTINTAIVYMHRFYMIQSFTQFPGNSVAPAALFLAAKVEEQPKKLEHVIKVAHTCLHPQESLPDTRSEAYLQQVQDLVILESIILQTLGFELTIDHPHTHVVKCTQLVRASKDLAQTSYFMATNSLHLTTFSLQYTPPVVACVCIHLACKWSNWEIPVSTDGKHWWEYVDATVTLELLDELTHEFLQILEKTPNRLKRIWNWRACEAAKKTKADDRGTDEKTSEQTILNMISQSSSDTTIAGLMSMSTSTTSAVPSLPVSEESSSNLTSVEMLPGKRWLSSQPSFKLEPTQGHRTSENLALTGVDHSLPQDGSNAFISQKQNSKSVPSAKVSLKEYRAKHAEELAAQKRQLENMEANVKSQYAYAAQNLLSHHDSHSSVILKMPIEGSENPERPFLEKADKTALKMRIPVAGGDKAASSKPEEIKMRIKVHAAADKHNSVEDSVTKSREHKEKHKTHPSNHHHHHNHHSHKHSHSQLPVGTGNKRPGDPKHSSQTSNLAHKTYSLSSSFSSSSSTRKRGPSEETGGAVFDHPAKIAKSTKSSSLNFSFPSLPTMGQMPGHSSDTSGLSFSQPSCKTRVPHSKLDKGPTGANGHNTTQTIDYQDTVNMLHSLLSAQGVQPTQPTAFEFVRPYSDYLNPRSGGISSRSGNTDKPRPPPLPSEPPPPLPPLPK
Chain of CDK5 (Q00535 whole entry): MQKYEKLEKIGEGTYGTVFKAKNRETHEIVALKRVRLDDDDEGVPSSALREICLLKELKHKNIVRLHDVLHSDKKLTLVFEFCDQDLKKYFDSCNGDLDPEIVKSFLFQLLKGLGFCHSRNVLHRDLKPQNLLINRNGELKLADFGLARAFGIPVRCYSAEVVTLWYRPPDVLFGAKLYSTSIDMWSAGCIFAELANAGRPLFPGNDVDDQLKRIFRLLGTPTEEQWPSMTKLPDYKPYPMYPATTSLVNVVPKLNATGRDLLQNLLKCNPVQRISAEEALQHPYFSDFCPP
Chain of CDK5 (Q15078 99-307 partner): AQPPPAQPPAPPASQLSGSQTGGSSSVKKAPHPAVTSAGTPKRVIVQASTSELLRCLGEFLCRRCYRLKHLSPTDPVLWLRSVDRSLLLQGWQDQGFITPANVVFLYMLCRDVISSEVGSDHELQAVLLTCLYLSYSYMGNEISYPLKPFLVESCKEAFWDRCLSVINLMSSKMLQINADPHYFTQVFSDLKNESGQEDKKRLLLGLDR
Chain of PLK1 (P53350 whole entry): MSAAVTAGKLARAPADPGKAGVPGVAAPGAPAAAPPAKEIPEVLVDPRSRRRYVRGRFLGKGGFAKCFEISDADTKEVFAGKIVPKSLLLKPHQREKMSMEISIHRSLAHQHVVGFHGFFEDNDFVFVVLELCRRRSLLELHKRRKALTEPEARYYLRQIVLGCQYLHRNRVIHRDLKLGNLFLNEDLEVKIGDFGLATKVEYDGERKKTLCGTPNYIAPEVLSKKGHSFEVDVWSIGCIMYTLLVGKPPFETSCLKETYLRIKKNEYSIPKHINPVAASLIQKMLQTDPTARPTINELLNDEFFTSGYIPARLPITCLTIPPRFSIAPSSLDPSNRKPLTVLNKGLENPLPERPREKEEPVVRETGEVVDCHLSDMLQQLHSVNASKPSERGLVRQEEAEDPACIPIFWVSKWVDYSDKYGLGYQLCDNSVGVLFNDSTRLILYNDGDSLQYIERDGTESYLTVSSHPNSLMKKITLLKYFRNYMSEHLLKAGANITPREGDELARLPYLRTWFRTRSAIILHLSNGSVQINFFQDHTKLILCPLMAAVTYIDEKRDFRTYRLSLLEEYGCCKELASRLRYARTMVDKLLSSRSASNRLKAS
Chain of Erk5 (Q13164 whole entry): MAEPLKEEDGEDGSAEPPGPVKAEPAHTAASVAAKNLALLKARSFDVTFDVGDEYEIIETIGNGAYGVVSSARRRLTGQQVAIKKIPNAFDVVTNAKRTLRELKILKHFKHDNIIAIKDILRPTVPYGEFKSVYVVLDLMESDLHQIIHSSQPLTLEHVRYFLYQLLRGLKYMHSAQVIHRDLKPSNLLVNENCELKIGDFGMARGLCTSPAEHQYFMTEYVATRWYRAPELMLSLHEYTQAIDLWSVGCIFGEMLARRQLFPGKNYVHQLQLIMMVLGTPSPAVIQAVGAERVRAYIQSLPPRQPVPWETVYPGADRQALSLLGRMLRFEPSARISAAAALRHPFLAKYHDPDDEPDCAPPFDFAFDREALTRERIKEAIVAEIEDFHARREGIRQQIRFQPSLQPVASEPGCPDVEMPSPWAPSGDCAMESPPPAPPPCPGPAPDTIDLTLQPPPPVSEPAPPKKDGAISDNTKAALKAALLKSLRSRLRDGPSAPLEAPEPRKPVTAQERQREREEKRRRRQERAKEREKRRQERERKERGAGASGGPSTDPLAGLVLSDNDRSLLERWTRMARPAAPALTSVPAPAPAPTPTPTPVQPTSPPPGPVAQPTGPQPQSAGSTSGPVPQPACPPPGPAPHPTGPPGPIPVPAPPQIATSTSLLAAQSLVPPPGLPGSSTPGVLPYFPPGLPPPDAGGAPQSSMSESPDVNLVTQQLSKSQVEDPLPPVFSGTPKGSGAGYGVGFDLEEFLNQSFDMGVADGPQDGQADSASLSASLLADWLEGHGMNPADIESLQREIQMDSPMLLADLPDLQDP

With `Cc1c[nH]c(-c2cnc(NCCNc3ccc(C#N)cn3)nc2-c2ccc(Cl)cc2Cl)n1` [CHIR99021] the “% Inhibition at 10 μM, LIMK1” value (LIMK1) was 78.9%, the “% Inhibition at 10 μM, LIMK1” value (LIMK1; listed as CHIR 99021) was “greater than 50%” and the “number of kinases inhibited greater than 50% at 10 μM” value (panel of 311 kinases; 10 μM, 311 kinases) was 21 kinases. The EC50 ([1]; read-out: TCF/LEF (μM)) was 6 µM, the “% Inhibition at 10 μM, CDK5” value (CDK5; 10 μM) was 51.2% and the “% Inhibition at 10 μM, Erk5” value (Erk5) was 61.3%. The “Microsomal Stability (M:)” value [2] was “M: 4%”, the “% Inhibition at 10 μM, PLK1” value (PLK1) was 59.2% and the “% Inhibition at 10 μM, CDK9” value (CDK9) was 88.1%. For the same compound, the “% Inhibition at 10 μM, CDK9” value (CDK9; listed as CHIR 99021) was “greater than 50%”.

In the case of `COc1ccccc1[C@@H]1C2=C(CC(C)(C)CC2=O)Nc2n[nH]c(C)c21` [Compound 22], the “effect on amphetamine-induced hyperactivity, ICV injection” value [3] is reported as “attenuate amphetamine-induced hyperactivity”, the IC50 (GSK3β [4]) is reported as less than 0.1 µM and the IC50 (GSK3α [5]) is reported as less than 0.1 µM. For the same compound, the IC50 (CDK5; dose response) was 1.4 µM, the “mode of inhibition (Lineweaver-Burk plot)” value (GSK3β [6]) was “competitive inhibition” and the IC50 (GSK3α [7]) was 0.027 µM. The IC50 (GSK3β [8]) was 0.061 µM.

In the case of `COc1ccccc1[C@@H]1C2=C(CC(C)(C)CC2=O)Nc2n[nH]c(C(F)(F)F)c21` [Compound 54, (R)-4-(2-methoxyphenyl)-7,7-dimethyl-3-(trifluoromethyl)-6,7,8,9-tetrahydro-2H-pyrazolo[3,4-b]quinolin-5(4H)-one], the fraction unbound at 5 h, 5 µM (in vitro) is reported as 0.09, the IC50 (GSK3β [9]) is reported as less than 0.1 µM and the “cellular toxicity in SH-SY5Y cells” value (SH-SY5Y cells) is reported as “no cellular toxicity”. The inhibition at 10 µM (CDK2/CycE1) was 73.5%, the “% of the kinome (311 kinases) inhibited” value (panel of 311 kinases) was 2.6% and the IC50 (GSK3β [4]; read-out: IC50 ADP Glo GSK3β) was 0.02 µM. The IC50 (GSK3α [5]) was less than 0.1 µM, the “stability in PBS, % still present” value (PBS stability) was “more than 95%” and the IC50 (GSK3α [10]) was 0.013 µM. The EC50 ([1]; read-out: TCF/LEF (μM)) was 4.8 µM, the EC50 ([1]; read-out: TCF/LEF EC50 (μM)) was 5 µM and the “Plasma protein binding % bound, human plasma” value [11] was 93%. The fraction unbound at 5 h, 5 µM ([11]; human, pH 7.4, read-out: Plasma protein binding % bound, human plasma (converted)) was 0.07, the solubility at 24 h (physchem) was 85 µM (≈ 33.3 µg/mL) and the “stability in glutathione (GSH), % remaining” value (GSH stability) was 99%. It also gave an inhibition at 10 µM (CDK2/CycA2) of 78.7%, an IC50 (GSK3β [12]) of 0.012 µM and an EC50 [13] of 5.35 µM. For the same compound, the “Plasma stability % remaining (in mice)” value [14] was 99%, the “Microsomal Stability (M:)” value [2] was “M: 0%” and the EC50 ([15]; Homo sapiens, U2OS, read-out: beta-Catenin Translocation (μM)) was 5.28 µM. It also gave an EC50 ([15]; read-out: beta-Catenin translocation EC50) of 6.97 µM, an IC50 [16] of 1.03 µM and an IC50 (GSK3β [17]) of less than 0.1 µM. The IC50 (GSK3β [17]; IC50 ADP Glo GSK3β (μM)) was 0.02 µM, the IC50 (GSK3β [17]; IC50 against GSK3β at 7 μM ATP) was 0.024 µM and the IC50 (GSK3β [17]; IC50 against GSK3β at 100 μM ATP) was 0.143 µM. For the same compound, the IC50 (GSK3β [17]; Target IC50 (nM), GSK3β) was 0.024 µM.
